One series relates to Heliothis zea. Briefly: Insecticidal activity, diet incorporation, neonate corn earworm larvae. The format is in vivo. As to conditions: 2.5 ppm in diet; for Mortality: neonate larvae fed 1 week; for Wt. reductions: survivors after 1 week. As to the method:
(§1) Insects. Neonate larvae of Heliothis zea and Spodoptera frugiperda were used for all assays. They were obtained from laboratory colonies reared on pinto bean-based diet at 27°±1° C., 40±10% relative humidity, and a 14:10 light:dark photoperiod.
(§2) The diet used to rear the insects was based on a standard pinto bean diet for many species of lepidoptera and contained the following ingredients: 120 g dried pinto beans, 43 g wheat germ, 28 g brewer's yeast, 8 g Vanderzant's vitamin mix, 2.8 g ascorbic acid, 1.75 g methyl paraben, 0.9 g sorbic acid, 12 g agar, 1 ml formaldehyde (38%), 1.5 ml of propionic-phosphoric acid solution (42% propionic acid, 4.2% phosphoric acid), and 550 ml water. All dry diet ingredients (except for the pinto beans) were purchased from U.S. Biochemicals Corp. Before use, the beans were soaked in water until saturated. The agar was added to 250 ml of water and brought to a boil. The other ingredients were blended in a Waring blender until uniformly mixed. The hot agar was added, and blending continued until all ingredients were uniformly mixed.
(§3) The pinto bean-based diet was prepared and added in 5-ml quantities to test tubes. The test tubes were held at 60° C. until chemicals were incorporated to prevent solidification of the diet. The roseotoxin B was added in 125 μl of acetone to the liquid diet upon removal from the water bath to give a final concentration of 250-2.5 ppm. The chemical was incorporated into the diets by blending vigorously with a vortex mixer for 20 sec. Preliminary observations with colored solutions of both water and acetone indicated uniform incorporation by this method. The diets were dispensed into culture plates, and allowed to cool to room temperature. To remove the potentially toxic acetone, the diets were placed in a fume hood for ca. 20 min until slight darkening occurred. The diets were cut into approximately equal sections, and each section was placed into a well of a 24-well immunoassay plate. A single neonate H. zea or S. frugiperda larvae was added to each well. To prevent desiccation of the diet, the plate was covered by a sheet of parafilm, a sheet of cardboard, and the plastic cover. The cover was secured by two rubber bands, and groups of plates were placed in two polyethylene bags held closely by rubber bands. The plates were held under the same conditions used to rear the insects. Mortality was checked at 2, 4, and 7 days, and the surviving larvae were weighed after 7 days. Each chemical set was tested on a total of 40 larvae.
(§4) Mortality values are based on two replicates of ca. 20 insects each, whil
(§5) weight reductions are based on survivors of mortality tests. All chemical
(§6) were incorporated into insect diets, and fed to neonate larvae for 1 week

Another series deals with Spodoptera frugiperda. Nature of the series: Insecticidal activity, diet incorporation, neonate fall armyworm larvae. The class given is in vivo. As to conditions: 2.5 ppm in diet; for Mortality: neonate larvae fed 1 week; for Wt. reductions: survivors after 1 week. As to the method: as §1, §2, §3, §4, §5, §6
The subject of series [1] is mice. As to conditions: intraperitoneal injection; cited from earlier work.
Another series deals with silk worm larvae. As to conditions: cited from earlier work.
Series [2] has as its system mice. Briefly: Toxicity to mice by intraperitoneal injection. As to conditions: ratio of lethal doses.

Consider four compounds from US4956343A, “Control of insects by Roseotoxin B” (priority 1988, dated 1990).

Molecules are shown by their SMILES. Square brackets hold non-standard residues; d marks the D form. Peptide text beside a SMILES is read from it. dLac(3-vinyl) = C=CC[C@@H](O)C(=O)O; dHica = CC(C)C[C@@H](O)C(=O)O; NMeV = CN[C@H](C(=O)O)C(C)C; NMeA = CN[C@@H](C)C(=O)O; βAla = NCCC(=O)O

Turning to `CC1(C)C(C=C(Cl)Cl)C1C(=O)OCc1cccc(Oc2ccccc2)c1` (centres unmarked) [Permethrin], in the series with Heliothis zea, the Mortality is 17% and the Wt. reductions came out at 81%. In the series on Spodoptera frugiperda, the Mortality came out at 35% and the Wt. reductions stood at 94%.

As for `CCOC(=O)CC(SP(=S)(OC)OC)C(=O)OCC` (centres unmarked) [Malathion], in the series on Heliothis zea, the Mortality came out at 5.5% and the Wt. reductions was 27%. In the series with Spodoptera frugiperda, the Mortality came to 30% and the Wt. reductions worked out at 45%.

Consider `C=CC[C@H]1OC(=O)CCNC(=O)[C@H](C)N(C)C(=O)[C@H](C(C)C)N(C)C(=O)[C@H]([C@@H](C)CC)NC(=O)[C@@H]2CCCN2C1=O` [destruxin A] (cyclo([dLac(3-vinyl)]PI[NMeV][NMeA][βAla])), for which, in the series on mice [1], the “Dose that killed all test mice” value is reported as 1.35 mg/kg. Besides, the “Dose causing death by injection” value in the series on silk worm larvae is 0.28 µg/g. Moreover, the “Mammalian toxicity relative to roseotoxin B” value with mice [2] is recorded as “approximately 100 times”.

In the case of `CC[C@H](C)[C@@H]1NC(=O)[C@@H]2CCCN2C(=O)[C@@H](CC(C)C)OC(=O)CCNC(=O)[C@H](C)N(C)C(=O)[C@H](C(C)C)N(C)C1=O` [Destruxin B] (cyclo([dHica]PI[NMeV][NMeA][βAla])), the “Dose that killed all test mice” value with mice [1] is 16.9 mg/kg. Further, in the series with silk worm larvae, the “Dose causing death by injection” value was 0.34 µg/g. Further, the “Mammalian toxicity relative to roseotoxin B” value in the series with mice [2] was “about 10 times”.
